A word on the IC50: it is the concentration at which inhibition is half-maximal. Low readings indicate greater potency in that assay, high ones weaker potency in that assay. One may read the EC50 as the concentration needed to bring the measured effect to its halfway point.

In series [1] the test system is middle cerebral artery occlusion (MCAO) cerebral stroke model in rat. Put plainly: Rat MCAO cerebral stroke model, single administration, TTC staining. As to conditions: for Infarct area weight: tail vein injection within 10 min of reperfusion; for Infarct area weight / Infarct size: 24 h after reperfusion; for Inhibition rate of cerebral infarction / Infarct size: tail vein injection; for Inhibition rate of cerebral infarction: calculated from infarct size against model control; for Infarct size: infarct tissue weight as percentage of whole brain. The format is in vivo, SD rats. The method, then:
Through the middle cerebral artery occlusion (MCAO) cerebral stroke model (also known as cerebral ischemia model) in rat, the therapeutic effects of the compounds of the present disclosure at different doses and single administration on ischemic cerebral stroke in SD rats were studied. […] The ischemic rats were placed at room temperature to keep their body temperature at 37° C. After 90 min, the suture was pulled out for reperfusion. […] After 24 h of reperfusion, the animals were scored by NSS to evaluate neurological function, and then the animals were dissected to remove the brain for TTC staining. By determining the size of cerebral infarction and calculating the inhibition rate, the therapeutic effects of the test compounds on ischemic cerebral stroke in rats were evaluated comprehensively. […] The percentage of infarct tissue weight in the whole brain was used as the infarct size (%), and the inhibition rate (%) of each drug treatment group was calculated based on the infarct size. The inhibition rate was calculated with the following formula: [formula] 2.

In the next series the target is T1, human hERG ion channel (Homo sapiens, UniProt Q12809).
T1 construct: expressed in transfected cells; host or cells: HEK293 cells stably expressing hERG
Put plainly: hERG whole-cell patch clamp in HEK293 cells. The format is cell-based. As to conditions: for IC50: hERG tail current, HEK293 cells, 0.3-30 μM, room temperature. The protocol: Effect of Compounds of the Present Disclosure on Human hERG Ion Channel Expressed in HEK293 Cells at Steady State Determined by Patch Clamp
The hERG ion channel steady-state expressing HEK293 cells were transferred to a perfusion tank and perfused with extracellular fluid at room temperature. Each cell was used as a control. All test compounds were dissolved by shaking with dimethyl sulfoxide and prepared as serial concentrations of 0.3 μM, 1 μM, 3 μM, 10 μM and 30 μM. The test compounds were perfused using a perfusion system utilizing their own gravity. At least two cells were tested for each concentration. After the current was stable (or 5 min), the current magnitude changes before and after the compound was used were compared to calculate the blocking effect of the compound. Test electrodes were pulled with PC-10. Whole-cell patch clamp was used to record, with noise filtered at one-fifth of the sampling frequency. […] This procedure was repeated every 15 seconds. hERG tail currents were pure hERG currents. After the current was stabilized, the administration was performed by continuous extracellular perfusion from low concentration to high concentration. Starting from a low concentration, perfusion was continued until the drug effect was stable, and then perfusion of the next concentration was performed.
Stimulus delivery and signal acquisition were performed by the Patch Master software. The signal was amplified with a patch clamp amplifier with a filtering of 10 KHz. Fit Master, EXCEL, Graph Pad Prism and SPSS 21.0 were used for further data analysis and curve fitting. In data processing, when judging the blocking effect on hERG the peak value of the tail current and its baseline were corrected. The effect of each compound at different concentrations was expressed by the inhibition rate of the tail current. Inhibition rate %=100×(peak value of tail current before administration-peak value of tail current after administration)/peak value of tail current before administration
IC50 values were fitted by the Hill equation: […]

A further series concerns fibrosarcoma cell line. Put plainly: Ferroptosis screening model, MTT cell viability assay with Erastin induction. The format is cell-based. The method, then: In this example, in order to study the inhibitor of ferroptosis, a screening model for ferroptosis was constructed in house, and the details are as follows:
The screening model for ferroptosis mainly used the MTT cell viability assay. First, the fibrosarcoma cell line was cultured in a dish, and the cells in the logarithmic growth phase were seeded in a 96-well plate in specific numbers (3000-10000 cells/well), 100 μL per well, and then cultured in an incubator at 37° C. and 5% CO2 to allow the cells to adhere. After 24 h, 100 μL of compounds at certain concentrations prepared in the indicated medium and the ferroptosis inducer Erastin (final concentration of 10 μM) were added, and wells in triplicate were set up for each compound to ensure the accuracy of the results. A negative control group, positive control group (5 μM of ferrostain-1), blank control group and solvent control group were also set. After dosing, cells were placed in the incubator and cultured for 72 h. On the day of the MTT test, MTT test solution (5 mg/mL MTT solution dissolved in physiological saline, stored at 4° C. in the dark) was pre-prepared, and 20 μL was added to each well. Cells were placed in the incubator and cultured for another 2-4 h. Then, 50 μL of 20% SDS solution (dissolved in MiliiQ water, added with 1% concentrated hydrochloric acid) was added to each well, and cells were placed in the incubator overnight. The next day, the absorbance value at 570 nm was detected with a microplate reader to calculate the inhibition rate of the drug on ferroptosis. Generally, the absorbance value of the control group should be between 0.8-1.2 as a normal value.
The curve of inhibition rate change was fitted using Graph Pad Prism 5 software to obtain EC50.

Series [2] is described as follows: Hemolysis reaction (statement only, no method).
Setting [3] is: 72 h, inhibition of ferroptosis induced by Erastin 10 μM, MTT; average of three tests.
The mark [4] stands for this setting: inhibition of ferroptosis induced by Erastin 10 μM, 72 h, MTT; average of three tests.
Setting [5] is: summary of Table 1, compared with positive drug ferrostain-1.

T1 sequence (Q12809 whole entry): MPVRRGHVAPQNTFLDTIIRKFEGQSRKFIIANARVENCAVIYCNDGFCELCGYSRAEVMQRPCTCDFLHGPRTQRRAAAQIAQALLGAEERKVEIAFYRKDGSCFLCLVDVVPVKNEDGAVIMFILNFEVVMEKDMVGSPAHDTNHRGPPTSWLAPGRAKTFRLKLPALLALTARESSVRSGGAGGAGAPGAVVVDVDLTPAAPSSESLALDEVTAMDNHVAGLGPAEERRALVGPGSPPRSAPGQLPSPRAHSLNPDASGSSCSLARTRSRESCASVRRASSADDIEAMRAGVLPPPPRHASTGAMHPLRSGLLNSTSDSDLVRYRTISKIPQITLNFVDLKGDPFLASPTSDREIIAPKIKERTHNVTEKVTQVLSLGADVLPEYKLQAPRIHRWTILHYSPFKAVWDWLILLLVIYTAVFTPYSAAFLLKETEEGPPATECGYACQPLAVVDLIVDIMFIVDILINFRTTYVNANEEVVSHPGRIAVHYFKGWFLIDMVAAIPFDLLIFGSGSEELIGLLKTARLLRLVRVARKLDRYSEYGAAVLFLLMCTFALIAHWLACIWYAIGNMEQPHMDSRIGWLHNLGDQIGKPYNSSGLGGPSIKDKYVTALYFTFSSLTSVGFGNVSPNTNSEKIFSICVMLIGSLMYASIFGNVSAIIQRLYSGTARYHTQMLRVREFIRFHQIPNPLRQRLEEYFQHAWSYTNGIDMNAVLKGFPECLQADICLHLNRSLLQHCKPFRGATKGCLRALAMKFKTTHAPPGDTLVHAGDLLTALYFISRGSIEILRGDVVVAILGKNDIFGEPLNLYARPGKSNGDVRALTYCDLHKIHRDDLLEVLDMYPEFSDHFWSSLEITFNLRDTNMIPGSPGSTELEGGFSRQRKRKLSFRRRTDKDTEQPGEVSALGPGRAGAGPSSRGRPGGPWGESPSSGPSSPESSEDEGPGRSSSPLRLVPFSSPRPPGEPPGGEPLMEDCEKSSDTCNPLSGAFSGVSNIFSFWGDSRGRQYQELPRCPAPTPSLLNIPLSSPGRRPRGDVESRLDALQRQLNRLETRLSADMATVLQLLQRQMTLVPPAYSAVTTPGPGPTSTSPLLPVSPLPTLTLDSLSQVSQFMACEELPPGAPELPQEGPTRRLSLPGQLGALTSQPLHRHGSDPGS

Regarding `CC(c1ccc(N2CCN(C)CC2)cc1)c1ccc2c(c1)Nc1ccccc1S2` (stereo not drawn) [Comparative Compound 1, reference compound], the Infarct area weight in series [1] (2.5 mg/kg) was 0.14 ± 0.07 g; in series [1] (5 mg/kg), 0.11 ± 0.05 g. The “Inhibition rate of cerebral infarction” value in series [1] (2.5 mg/kg) was 19.0%; in series [1] (5 mg/kg), 33.6%. In turn, `C=C(c1ccc(S(=O)(=O)NC2CCN(C)CC2)cc1)c1ccc2c(c1)Nc1ccccc1S2` [Comparative Compound 2, reference compound] came in with an IC50 against human hERG ion channel of 710 nM. `C=C(c1ccc2c(c1)Nc1ccccc1S2)c1cnc2c(cnn2CC2CCOCC2)c1` [Compound 2] returned an EC50 in the series with fibrosarcoma cell line (setting [3]) of 38 nM. On the same count and under the same terms, in the case of `C=C(c1ccc2c(c1)Nc1ccccc1S2)c1cnc2c(cnn2CC2CCN(C(=O)OC(C)(C)C)CC2)c1` [Compound 4] it was 76 nM; in that of `C=C(c1ccc2c(c1)Nc1ccccc1S2)c1ccc2c(C(=O)NCCN3CCOCC3)c[nH]c2c1` [Compound 6], 15 nM; in that of `C=C(c1ccc2c(c1)Nc1ccccc1S2)c1cn2ccnc2c(N2CCOCC2)n1` [Compound 7], 24 nM. `C=C(c1ccc2c(c1)Nc1ccccc1S2)c1cnc2c(cnn2C2CN(C(=O)OC(C)(C)C)C2)c1` [Compound 8] registered an EC50 in the series with fibrosarcoma cell line (setting [4]) of 55 nM. This counts as double-digit nanomolar. On to `C=C(c1ccc2c(c1)Nc1ccccc1S2)c1ccc2cc(C(=O)NCCN3CCOCC3)[nH]c2c1` [Compound 9], for which the EC50 in the series on fibrosarcoma cell line (setting [3]) is 12 nM. Still for that read-out and setting: as for `C=C(c1ccc2c(c1)Nc1ccccc1S2)c1ccc2c(C=O)c[nH]c2c1` [Compound 10], the figure is 15 nM; as for `C=C(c1ccc2c(c1)Nc1ccccc1S2)c1ccc2c(c1)SCC(=O)N2` [Compound 11], 33 nM. Same read-out and setting: in the case of `C=C(c1ccc2c(c1)Nc1ccccc1S2)c1ccc2c(c1)OCCO2` [Compound 13] it was 37 nM.

As to `C=C(c1ccc2c(c1)Nc1ccccc1S2)c1ccc2ncccc2c1` [Compound 14], the “effect on the human hERG ion channel (in words)” value at human hERG ion channel (HEK293 cells in a steady state) is listed as “no significant effect”. On human hERG ion channel, this compound yielded an IC50 above 30000 nM. Moreover, the “improvement of cardiac safety compared with compound 59 of CN111574474A” value at human hERG ion channel (ratio of hERG IC50 values) is “about 50 times”. Moreover, the response with fibrosarcoma cell line (setting [3]) was half-maximal at 6 nM (EC50). The “inhibitory effects on ferroptosis (in words)” value in the series on fibrosarcoma cell line (setting [5]) is “excellent inhibitory effects on ferroptosis, significantly better than the positive drug ferrostain-1”. In series [1] (2.5 mg/kg), the Infarct area weight is listed as 0.15 ± 0.07 g, the “Inhibition rate of cerebral infarction” value is on record as 14.0% and the Infarct size is reported as 12.11 ± 5.69%. For the same compound, in series [1] (5 mg/kg), the Infarct area weight came out at 0.12 ± 0.05 g, the “Inhibition rate of cerebral infarction” value is 29.3% and the Infarct size amounted to 9.95 ± 4.69%. In addition, the “range of necrosis of brain tissue lesions (in words)” value in series [1] (high and low dose administration groups) was “reduce the range of necrosis of brain tissue lesions”. For the same compound, in series [2], the “hemolysis reaction (in words)” value is recorded as “no hemolysis reaction”. The compound `C=C(c1ccc2c(c1)Nc1ccccc1S2)c1ccc2c(c1)OC(F)(F)O2` [Compound 15] gave a 50% effective concentration (EC50) in the series on fibrosarcoma cell line (setting [3]) of 10 nM. `C=C(c1ccc2c(c1)CCN2C(C)=O)c1ccc2c(c1)Nc1ccccc1S2` [Compound 16] yielded a concentration giving a half-maximal response (EC50) in the series on fibrosarcoma cell line (setting [3]) of 10 nM. In the series with fibrosarcoma cell line (setting [3]), `C=C(c1cnc2c(c1)CCN2)c1ccc2c(c1)Nc1ccccc1S2` [Compound 17] gave an EC50 of 89 nM. Take `C=C(c1ccc2c(c1)Nc1ccccc1S2)c1cnc2c(cnn2C2CCOC2)c1` (stereo not drawn) [Compound 19]: a half-maximal response in the series with fibrosarcoma cell line (setting [4]) (EC50) required 13 nM.

The compound `C=C(c1ccc2c(c1)Nc1ccccc1S2)c1cnc2c(cnn2C2CCN(C)CC2)c1` [Compound 20] returned an EC50 in the series with fibrosarcoma cell line (setting [3]) of 0.2 nM. In the series on fibrosarcoma cell line (setting [5]), the “inhibitory effects on ferroptosis (in words)” value is listed as “excellent inhibitory effects on ferroptosis, significantly better than the positive drug ferrostain-1”. `C=C(c1ccc2c(c1)Nc1ccccc1S2)c1cnc2nc(C(=O)NCCN(C)C)cn2c1` [Compound 22] came in with a half-maximal effective concentration (EC50) in the series with fibrosarcoma cell line (setting [3]) of 14 nM. This lies in the double-digit nanomolar range. The same measure, in the same setting: in the case of `C=C(c1ccc2c(c1)Nc1ccccc1S2)c1cn2cc(C(=O)NC3CCOCC3)nc2cn1` [Compound 23] it was 67 nM; in that of `C=C(c1ccc2c(c1)Nc1ccccc1S2)c1cn2cc(C(=O)NCC3CCOCC3)nc2cn1` [Compound 24], 56 nM. On the same count and under the same terms, in the case of `C=C(c1ccc2c(c1)Nc1ccccc1S2)c1cn2cc(C(=O)N[C@H](C)c3cccc4ccccc34)nc2cn1` [Compound 25] it was 55 nM; in that of `C=C(c1ccc2c(c1)Nc1ccccc1S2)c1cn2cc(C(=O)N[C@H](C)c3ccccc3)nc2cn1` [Compound 26], 76 nM; in that of `C=C(c1ccc2c(c1)Nc1ccccc1S2)c1cnc2c(cnn2CCOC)c1` [Compound 27], 73 nM. The same measure, in the same setting: as for `C=C(c1ccc2c(c1)Nc1ccccc1S2)c1cnc2c(cnn2C2CCN(C(=O)OC(C)(C)C)CC2)c1` [Compound 29], the figure is 29 nM; as for `C=C(c1ccc2c(c1)Nc1ccccc1S2)c1cnc2c(cnn2C2CN(C(=O)OC(C)(C)C)C2)c1` [Compound 30], 92 nM; as for `C=C(c1ccc2c(c1)Nc1ccccc1S2)c1cnc2[nH]ncc2c1` [Compound 31], 11 nM. In the series with fibrosarcoma cell line (setting [4]), `C=C(c1ccc2c(c1)Nc1ccccc1S2)c1cnc2c(cnn2C2CCOC2)c1` (stereo not drawn) [Compound 32] had an EC50 of 50 nM. In the case of `C=C(c1ccc2c(c1)Nc1ccccc1S2)c1cnc2c(cnn2CC)c1` [Compound 33], the concentration for a half-maximal effect (EC50) in the series with fibrosarcoma cell line (setting [3]) is 67 nM. On the same count and under the same terms, as for `C=C(c1ccc2c(c1)Nc1ccccc1S2)c1cnc2c(ccn2C)c1` [Compound 34], the figure is 42 nM; as for `C=C(c1ccc2c(c1)Nc1ccccc1S2)c1cnc2sccc2c1` [Compound 35], 74 nM. Still for that read-out and setting: as for `C=C(c1ccc2c(c1)Nc1ccccc1S2)c1cnc2c(cnn2C2CCNCC2)c1` [Compound 36], the figure is 16 nM.

In the case of `CCOC(=O)c1ccc(NC2CCCCC2)c(N)c1` [Ferrostain-1, Ferrostatin-1, reference compound], in the series with fibrosarcoma cell line (72 h), the midpoint of the response, the EC50, lay at 60 nM.

As for `CCCCC1OC(=O)c2ccccc21` (stereo not drawn) [Positive drug, butylphthalide, reference compound], in series [1] (5 mg/kg), the Infarct area weight is listed as 0.18 ± 0.09 g, the “Inhibition rate of cerebral infarction” value is reported as 1.1% and the Infarct size is 13.93 ± 6.97%.

These data come from US12448376B2, “Phenothiazine ferroptosis inhibitor, preparation method therefor and application thereof” (CHENGDU HENGHAO INNOVATIVE SCIENCE AND TECHNOLOGY CO., LTD., priority 2019, dated 2025).
